From ChEMBL document CHEMBL1201862, “PubChem BioAssay data set” (2004) come the findings set out here.

SMILES strings stand for the structures.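 Cultured in 96-well plates, cells were exposed to test compound for 48 hours across five concentrations. GI50 is the concentration that inhibits growth by half.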 Activity calls are given as the source filed them. Rule as the data show it: active = GI50 up to about 1.1 µM and inactive = higher.

Some test systems named below: KM12; UACC-62; IGROV-1; NCI-H23; TK-10; MOLT-4; SR; T47D; SK-MEL-2; MCF7; SK-MEL-5; OVCAR-3; SF-539; UACC-257; EKVX; COLO 205; DU-145; RPMI-8226; CCRF-CEM; MDA-MB-435.
Holding throughout (experiment): DTP human tumour cell line panel, 48 h

On to `CC(=O)O[C@H]1CC[C@@]2(C)C(=CC[C@H]3[C@@H]4C/C(=C\c5ccc(N(C)C)cc5)[C@H](OC(C)=O)[C@@]4(C)CC[C@@H]32)C1`, for which the GI50 in the experiment with KM12 is 11.9 µM (inactive); with UACC-62 it was 6.41 µM (inactive); in the experiment with IGROV-1, 13.8 µM (inactive); in the experiment on NCI-H23, 13.1 µM (inactive); in the experiment on TK-10 it was 15.6 µM (inactive); with MOLT-4, 5.98 µM (inactive). The GI50 was 4.1 µM (inactive) in the experiment on SR; 5.56 µM (inactive) in the experiment with T47D; 8.53 µM (inactive) with SK-MEL-2; 7.62 µM (inactive) with MCF7; 12.5 µM (inactive) in the experiment on SK-MEL-5; 8.93 µM (inactive) with OVCAR-3. The GI50 with SF-539 is 10.7 µM (inactive); in the experiment with UACC-257 it was 6.14 µM (inactive); with EKVX, 8.69 µM (inactive); in the experiment with COLO 205, 4.54 µM (inactive); in the experiment on DU-145, 23.8 µM (inactive); with RPMI-8226 it was 4.89 µM (inactive).

As for `Nc1c(F)c(F)c2c(c1F)N(CCCCCl)c1ccccc1S2`, the GI50 in the experiment with KM12, with UACC-62, with IGROV-1, with NCI-H23, in the experiment on TK-10 and with MOLT-4 was > 100 µM (inactive) in each case. Also, the GI50 with SR, in the experiment with T47D, in the experiment on SK-MEL-2, with MCF7, in the experiment on CCRF-CEM and with SK-MEL-5 was > 100 µM (inactive) in each case. The GI50 in the experiment with OVCAR-3, in the experiment on SF-539, in the experiment with UACC-257, in the experiment with COLO 205, with DU-145 and in the experiment on RPMI-8226 was > 100 µM (inactive) in each case.

As to `O=C1CSC(=S)N1` [RHODANINE], the GI50 in the experiment on KM12, with IGROV-1, in the experiment with NCI-H23, in the experiment on TK-10, with MOLT-4 and in the experiment on SR was > 100 µM (inactive) throughout. Besides, the GI50 in the experiment on T47D, in the experiment on SK-MEL-2, in the experiment with MCF7, with CCRF-CEM, in the experiment with SK-MEL-5 and with OVCAR-3 was > 100 µM (inactive) in each case. The GI50 with SF-539, in the experiment with UACC-257, in the experiment on EKVX, in the experiment on COLO 205, in the experiment with DU-145 and in the experiment on RPMI-8226 was > 100 µM (inactive) each time.

`O=C1C(Cl)C2(CC(/C=C/c3ccccc3O)=NN2c2cccc(S(=O)(=O)O)c2)N1c1nc2ccccc2s1` (configuration not stated): the GI50 is 14.8 µM (inactive) in the experiment with KM12; 15.2 µM (inactive) in the experiment with UACC-62; 14.9 µM (inactive) with IGROV-1; 15.6 µM (inactive) in the experiment on NCI-H23; 12.3 µM (inactive) in the experiment on TK-10; 17.1 µM (inactive) in the experiment with MOLT-4. The GI50 with SR was 15.3 µM (inactive); in the experiment on T47D, 17.4 µM (inactive); with SK-MEL-2, 16.8 µM (inactive); in the experiment with MCF7, 15.4 µM (inactive); with CCRF-CEM, 7.24 µM (inactive); in the experiment on SK-MEL-5 it was 12.1 µM (inactive). The GI50 in the experiment on SF-539 is 16.9 µM (inactive); with UACC-257, 16.1 µM (inactive); with MDA-MB-435 it was 15.1 µM (inactive); in the experiment with EKVX it was 18.6 µM (inactive); in the experiment with COLO 205, 18.9 µM (inactive); in the experiment with RPMI-8226 it was 12.1 µM (inactive).

In the case of `O=c1c(Sc2c(SCSc3cnc4ccccc4c3Sc3c[nH]c4ccccc4c3=O)cnc3ccccc23)c[nH]c2ccccc12`, the GI50 is > 100 µM (inactive) in the experiment with KM12; 43.3 µM (inactive) in the experiment on UACC-62; 88.9 µM (inactive) in the experiment on IGROV-1; > 100 µM (inactive) in the experiment with NCI-H23; > 100 µM (inactive) with TK-10; > 100 µM (inactive) in the experiment on MOLT-4. Further, the concentration for 50% growth inhibition (GI50) is 0.877 µM (active) in the experiment on SR; > 100 µM (inactive) with T47D; > 10 µM (inactive) in the experiment with SK-MEL-2; 12.7 µM (inactive) in the experiment on CCRF-CEM; 39.6 µM (inactive) with SK-MEL-5; > 100 µM (inactive) in the experiment with OVCAR-3. The GI50 in the experiment with SF-539 was > 100 µM (inactive); with UACC-257 it was > 100 µM (inactive); in the experiment on MDA-MB-435 it was 31.1 µM (inactive); in the experiment with EKVX, > 100 µM (inactive); with COLO 205, > 100 µM (inactive); in the experiment on DU-145, > 100 µM (inactive). In the experiment on RPMI-8226, the GI50 was 14.5 µM (inactive).

For `CN1CC2CC(C1)c1cccc(=O)n1C2` (configuration not stated), the GI50 with KM12, in the experiment with UACC-62, in the experiment on IGROV-1, in the experiment on NCI-H23, with TK-10 and in the experiment with T47D was > 100 µM (inactive) throughout. Also, the GI50 in the experiment with SK-MEL-2, in the experiment with MCF7, in the experiment on SK-MEL-5, in the experiment with OVCAR-3, with UACC-257 and in the experiment on MDA-MB-435 was > 100 µM (inactive) each time. The GI50 in the experiment on EKVX, with COLO 205 and in the experiment on DU-145 was > 100 µM (inactive) throughout.

With `COC(=O)CNC(=O)CSc1nnc(COc2ccc(Cl)cc2)n1-c1ccccc1`, the GI50 in the experiment with KM12 was 56.9 µM (inactive); in the experiment with UACC-62, 39.5 µM (inactive); in the experiment with IGROV-1 it was 21 µM (inactive); with NCI-H23, 40.3 µM (inactive); with TK-10, 22 µM (inactive); with MOLT-4, 64.1 µM (inactive). Besides, the GI50 with T47D is 26.6 µM (inactive); in the experiment on SK-MEL-2, 23.5 µM (inactive); in the experiment on MCF7 it was 79.6 µM (inactive); in the experiment on CCRF-CEM, 57.4 µM (inactive); in the experiment with OVCAR-3, 71.8 µM (inactive); in the experiment on SF-539, > 100 µM (inactive). Further, the GI50 with UACC-257 is 29.9 µM (inactive); with MDA-MB-435, 20.8 µM (inactive); in the experiment with EKVX, > 100 µM (inactive); with COLO 205, > 100 µM (inactive); in the experiment on DU-145 it was 16.3 µM (inactive).

Consider `CO/C(N)=C(C#N)/N=C/c1ccsc1`, for which the GI50 in the experiment with KM12 is 60.7 µM (inactive); with UACC-62, 33.4 µM (inactive); in the experiment with IGROV-1, 52.6 µM (inactive); with NCI-H23, 37.3 µM (inactive); in the experiment on TK-10, > 100 µM (inactive); in the experiment on MOLT-4, 47.6 µM (inactive). Moreover, the GI50 is 68.4 µM (inactive) in the experiment with T47D; 37.3 µM (inactive) with SK-MEL-2; 32.5 µM (inactive) in the experiment with MCF7; 24 µM (inactive) in the experiment with CCRF-CEM; 28.2 µM (inactive) with SK-MEL-5; 30.6 µM (inactive) in the experiment on OVCAR-3. Moreover, the GI50 is 26.2 µM (inactive) in the experiment on SF-539; 41.9 µM (inactive) in the experiment on UACC-257; 36.2 µM (inactive) in the experiment on MDA-MB-435; 54.6 µM (inactive) with EKVX; 36.6 µM (inactive) in the experiment with COLO 205; 42.4 µM (inactive) in the experiment on DU-145.

For `N#Cc1c(N2CCOCC2)[nH]c(=O)c(C(c2c(Cl)cccc2Cl)c2c(O)c(C#N)c(N3CCOCC3)[nH]c2=O)c1O`, the GI50 in the experiment with KM12 was 16.1 µM (inactive); in the experiment on UACC-62 it was 16.6 µM (inactive); in the experiment with IGROV-1 it was 18.1 µM (inactive); in the experiment with NCI-H23 it was 16.2 µM (inactive); in the experiment on TK-10, 17.5 µM (inactive); with MOLT-4 it was 16.1 µM (inactive). Moreover, the GI50 in the experiment on SR is 5.89 µM (inactive); in the experiment with SK-MEL-2, 17.6 µM (inactive); in the experiment with MCF7, 16.7 µM (inactive); in the experiment with CCRF-CEM it was 15.1 µM (inactive); in the experiment on SK-MEL-5, 16.6 µM (inactive); in the experiment on OVCAR-3, 16.4 µM (inactive). The GI50 was 19.1 µM (inactive) in the experiment with SF-539; 17.8 µM (inactive) in the experiment with UACC-257; 16.6 µM (inactive) with MDA-MB-435; 18.3 µM (inactive) with EKVX; 13.8 µM (inactive) with COLO 205; 23.9 µM (inactive) in the experiment on DU-145. Besides, in the experiment on RPMI-8226, the GI50 was 21.4 µM (inactive).

For the compound `COc1ccccc1C(=O)c1ccc2ccccc2c1`, the GI50 with KM12 was 4.34 µM (inactive); with UACC-62, 7.48 µM (inactive); with IGROV-1, 11.3 µM (inactive); in the experiment with NCI-H23 it was 40 µM (inactive); with TK-10 it was 17.8 µM (inactive); with MOLT-4, 4.34 µM (inactive). In addition, the GI50 in the experiment on SR is 3.24 µM (inactive); with SK-MEL-2, 14.1 µM (inactive); with MCF7, 8.15 µM (inactive); in the experiment on CCRF-CEM, 20.2 µM (inactive); in the experiment on SK-MEL-5 it was 6.19 µM (inactive); in the experiment with OVCAR-3 it was 9.4 µM (inactive). Also, the GI50 with SF-539 is 5.74 µM (inactive); in the experiment on UACC-257 it was 30.6 µM (inactive); with MDA-MB-435, 3.47 µM (inactive); in the experiment on EKVX, 16.5 µM (inactive); with COLO 205, 20.4 µM (inactive); in the experiment with DU-145, 20.6 µM (inactive). In addition, the GI50 with RPMI-8226 was 16.2 µM (inactive).

In the case of `CC(=O)NNC(=O)C1CCCCN1` (configuration not stated), the GI50 in the experiment on KM12, in the experiment on IGROV-1, in the experiment with NCI-H23, with TK-10, in the experiment on MOLT-4 and in the experiment on SR was > 100 µM (inactive) in each case. Besides, the GI50 in the experiment on SK-MEL-2, in the experiment with MCF7, with CCRF-CEM, in the experiment on SK-MEL-5, with OVCAR-3 and in the experiment on SF-539 was > 100 µM (inactive) throughout. The GI50 with UACC-257, in the experiment with MDA-MB-435, in the experiment on EKVX, in the experiment with COLO 205, with DU-145 and with RPMI-8226 was > 100 µM (inactive) in each case.
